Read-outs that look alike come from different tables or passages of the source. Each block holds one molecule with its values, some of them ahead of it.
What was measured:
[1] = test system: SK-N-MC neuroepithelioma cells; experiment: MTT assay, inhibition of growth of SK-N-MC cells; assay type: cell-based, Human; settings: 72 h, medium with diferric transferrin 1.25 μM, mean ± SD (three experiments), read-out: IC50 at inhibiting the growth of SK-N-MC neuroepithelioma cells
Protocol: Human SK-N-MC neuroepithelioma cells were obtained from the American Type Culture Collection (ATCC; Manassas, VA). The SK-N-MC cell type was grown as described previously.[51]
The effect of complexes [1a,b]Cl–[3a,b]Cl on the cellular proliferation of SK-N-MC cells was examined using the 1-(4,5-dimethylthiazol-2-yl)-2,5-diphenyl-tetrazolium (MTT) assay by standard techniques.[52],[53] Human SK-N-MC cells were chosen for these studies as the antiproliferative effect of metal complexes has been extensively examined in this cell type.[52]−[54] MTT reduction is proportional to viable cell counts using SK-N-MC cells.[51] SK-N-MC cells were seeded at 1.5 × 10^4 cells/well in 96-well microtiter plates in a medium containing the compounds (0–50 μM) and human diferric transferrin (Tf) at 1.25 μM ([Fe] = 2.5 μM). Control samples contained Tf (1.25 μM) in the absence of the compounds. […] It is essential to add to the media when assessing the antiproliferative activity of the ligands used as positive controls, namely, desferrioxamine (DFO), di-2-pyridylketone 4,4-dimethyl-3-thiosemicarbazone (Dp44mT), and Doxorubicin.[61] The cells were incubated at 37 °C for 72 h, after which 10 μL of MTT solution (stock solution: 5 mg/mL) was added to each well and incubated for 2 h at 37 °C. After cell solubilization using 100 μL of 10% SDS–50% isobutanol in 0.01 M HCl, the plates were read at 570 nm using a scanning multiwell spectrophotometer. The inhibitory concentration (IC50) was defined as the concentration of the compound necessary to reduce the absorbance to 50% of the untreated control.

[2] = Hydrolysis / stability in aqueous media by HPLC; assay type: physicochemical; settings: for Estimated half-lifetime of the chlorido species: 75 μM solution in 20 mM phosphate buffer at pH 7.40, HPLC with UV detection at 300 nm; for Fraction of complex hydrolyzed after 24 h: 20 mM NaH2PO4/Na2HPO4 buffer at pH 7.40, 24 h, HPLC (Figure S4)
Protocol: One-dimensional (1D) ^1H and ^13C NMR and two-dimensional (2D) ^1H–^1H COSY, ^1H–^1H TOCSY, ^1H–^1H ROESY or ^1H–^1H NOESY, ^1H–^13C HSQC, and ^1H–^13C HMBC NMR spectra were recorded on two Bruker Avance III spectrometers at 500.32 or 500.10 (^1H), and 125.82 or 125.76 (^13C) MHz, respectively, by using DMSO-d6 as a solvent at room temperature and standard pulse programs. ^1H and ^13C shifts are quoted relative to the solvent residual signals. The atom numbering scheme used for NMR assignments is depicted in Supporting Information, Scheme S1. Electrospray ionization mass spectrometry (ESI-MS) was carried out with a Bruker Esquire 3000 instrument, and the samples were dissolved in methanol. Elemental analyses were performed at the Microanalytical Laboratory of the University of Vienna with a PerkinElmer 2400 CHN Elemental Analyzer (PerkinElmer, Waltham, MA). Hydrolysis studies were undertaken on a ThermoFisher Dionex UltiMate 3000 HPLC (Waltham, MA) device. The column compartment was kept at 298 K. A Hypersil Gold C18 Reversed phase Silica Column (250 × 4.6 mm, 5 μm particle size, ThermoFisher; Waltham, MA) equipped with a guard column was used. The complexes were dissolved in either pure deionized water or phosphate buffer at pH 7.40 so that the final concentrations were 100 mM or 75 μM, respectively. Samples were automatically injected into the HPLC, and separation of the hydrolysis products was achieved by applying gradient elution (5–80% or 10–50% acetonitrile in 15 mM aqueous formic acid). Detection and quantification of the peaks was conducted using the ThermoFisher Dionex DAD-3000RS UV detector (Waltham, MA) at a wavelength of 300 nm and the Chromeleon 7 software package (ThermoFisher Dionex, Sunnyvale, CA).
Their stability in deionized water (Supporting Information, Figure S3) is very similar to that in buffered solution at physiological pH (Supporting Information, Figure S4; 20 mM NaH2PO4/Na2HPO4 buffer at pH 7.40). […] Attempts to establish the nature of the predominant hydrolysis reactions were then performed. The fractions containing the two peaks from the hydrolysis of [2a]Cl were collected and subjected to high-resolution ESI mass spectrometry. The most abundant mass at m/z 373.1397 could be attributed to the doubly charged fragment [M–2Cl]^2+, whereas the second peak at m/z 736.2786 was assigned to the hydroxido species [M–2Cl+OH]^+, clearly stemming from hydrolysis of the chlorido ligand.
Data were recorded every hour over 24 h using HPLC with UV detection at 300 nm (see Experimental Section for details). Quantification was done by normalizing the AUC to the AUC at 0 h.

[3] = Stability in DMSO by ESI mass spectrometry; assay type: physicochemical; settings: DMSO solution, up to 19 h old, diluted with methanol 1:100, ESI-MS
Text: Complexes [3a]Cl and [3b]Cl remain intact when dissolved in DMSO.

Molecule: (η^6-p-Cymene)[6-(4-methylpiperazin-1-yl)-κN-(pyridin-2-yl-methylene)-11H-indolo[3,2-c]quinolin-2-κN-amine]chloridoosmium(II) Chloride [[1b]Cl]
IC50 [1]: > 50 µM

Molecule: (η^6-p-Cymene)[6-(4-methylpiperazin-1-yl)-κN-(pyridin-2-yl-methylene)-11H-indolo[3,2-c]quinolin-2-κN-amine]chloridoruthenium(II) Chloride [[1a]Cl]
IC50 [1]: 39.8 ± 2.07 µM

Molecule: (η^6-p-Cymene)[6-(4-methylpiperazin-1-yl)-κN-(pyridin-2-yl-methylene)-11H-indolo[3,2-c]quinolin-4-κN-amine]chloridoosmium(II) Chloride [[2b]Cl]
IC50 [1]: 19.4 ± 1.28 µM
Estimated half-lifetime of the chlorido species [2]: approximately 6 h
Fraction of complex hydrolyzed after 24 h [2]: greater than 90%

Molecule: (η^6-p-Cymene)[6-(4-methylpiperazin-1-yl)-κN-(pyridin-2-yl-methylene)-11H-indolo[3,2-c]quinolin-4-κN-amine]chloridoruthenium(II) Chloride [[2a]Cl]
IC50 [1]: 18.4 ± 2.22 µM
Estimated half-lifetime of the chlorido species [2]: approximately 6 h
AUC of third (minor) hydrolysis species compared to the starting material ([2]; 75 μM solution in 20 mM phosphate buffer at pH 7.40, after 24 h): approximately 12%
Fraction of complex hydrolyzed after 24 h [2]: greater than 90%

Molecule: (η^6-p-Cymene)[6-(4-methylpiperazin-1-yl)-κN-(pyridin-2-yl-methylene)-11H-indolo[3,2-c]quinolin-8-κN-amine]chloridoosmium(II) Chloride [[3b]Cl]
IC50 [1]: 41.2 ± 2.37 µM
Stability when dissolved in DMSO [3]: remain intact

Molecule: (η^6-p-Cymene)[6-(4-methylpiperazin-1-yl)-κN-(pyridin-2-yl-methylene)-11H-indolo[3,2-c]quinolin-8-κN-amine]chloridoruthenium(II) Chloride [[3a]Cl]
IC50 [1]: > 50 µM
Stability when dissolved in DMSO [3]: remain intact

Results, then the molecule that gave them:

IC50 ([1]; Homo sapiens, SK-N-MC): 9.83 ± 0.39 µM
Molecule: CC(=O)N(O)CCCCCNC(=O)CCC(=O)N(O)CCCCCNC(=O)CCC(=O)N(O)CCCCCN [DFO, desferrioxamine, reference compound]

IC50 ([1]; Homo sapiens, SK-N-MC): 0.15 ± 0.05 µM
Molecule: COc1cccc2c1C(=O)c1c(O)c3c(c(O)c1C2=O)C[C@@](O)(C(=O)CO)C[C@@H]3O[C@H]1C[C@H](N)[C@H](O)[C@H](C)O1 [DOX, doxorubicin, reference compound]

IC50 [1]: 0.004 ± 0.003 µM
Molecule: CN(C)C(=S)NN=C(c1ccccn1)c1ccccn1 [Dp44mT, di-2-pyridylketone 4,4-dimethyl-3-thiosemicarbazone, reference compound]

Reference: publication PMC4087041, “Effect of the Piperazine Unit and Metal-Binding Site Position on the Solubility and Anti-Proliferative Activity of Ruthenium(II)- and Osmium(II)- Arene Complexes of Isomeric Indolo[3,2-c]quinoline—Piperazine Hybrids” (Inorganic Chemistry, 2014)
